Our source for the IC50 values is patent US7943624B2, “Pyridinylpyrazolopyrimidinone derivatives as PDE 7 inhibitors” (Asubio Pharma Co. Ltd., priority 2003, dated 2011).

By IC50 is commonly meant the concentration that inhibits the measured activity by half. High values mean weaker potency, low ones greater potency.

“And” between values parts separate entries of the source, which are not always exact repeats. Identical values can stand only once.

The first test addresses PDE 4 (phosphodiesterase IV). The experiment in a line: PDE 4 inhibiting effect (Biological Test 2; 3H-cAMP hydrolysis by PDE 4 fraction from Balb/c mouse liver). Type of test: biochemical, mice. The conditions noted are these: PDE 4 active fraction from Balb/c mouse liver; 0.064 μM cAMP, 2 hours at 25° C. On the procedure:
The PDE 4 (phosphodiesterase IV) inhibiting effect of the compounds of the present invention was performed by the following method, which was modified assay method described in Biochemical. Pharmacol. 48(6), 1219-1223 (1994).
(1) The active fraction of PDE 4 (phosphodiesterase IV) was obtained. That is, the livers obtained from three Balb/c mice (male, 12 weeks: obtainable from CLEA Japan, Inc.) were suspended with 30 mL of buffer solution B [20 mM of bis-tris, 5 mM of 2-mercaptoethnol, 2 mM of benzamidine, 2 mM of EDTA, 0.1 mM of 4-(2-aminoethyl)benzensulfonyl hydrochloride, 50 mM of sodium acetate; pH 6.5], then homogenized by Polytron® homogenizer. The homogenate were centrifuged under 25,000×G for 10 minutes at 4° C. The supernatant was separated and thus obtained supernatant was further centrifuged under 100,000×G for 60 minutes at 4° C., and then filtrated with 0.2pm filter to obtain the soluble fraction. […]
(3) The tested compound having desired concentration was reacted in the solution of 20 mM tris-HCl (pH 7.5), […], 100 μM of EDTA, 330 μg/mL of bovine serum albumin, 4 μg/mL of 5′-nucleotidase, 0.1 μCi of ^3H-cAMP (0.064 μM of cAMP), and storage solution of PDE 4 for 2 hours at 25° C. […] Further, Sephadex®-QAE was added to the obtained supernatant and the mixture was left at rest for 5 minutes, then, the radioactivity of the solution was measured. […]
`CNC1CCN(c2ccc(-c3nc4c(c(C5CCCCC5)nn4C)c(=O)[nH]3)c(OC)n2)CC1` [Compound 26, 3-Cyclohexyl-6-{2-methoxy-6-[4-(methylamino)-1-piperidinyl]-3-pyridinyl}-1-methyl-1,5-dihydro-4H-pyrazolo[3,4-d]-pyrimidin-4-one]: it took 1200 nM to reach half-maximal inhibition (IC50). This counts as single-digit micromolar.
Turning to `CNC1CCN(c2ccc(-c3nc4c(C)nn(C5CCCCC5)c4c(=O)[nH]3)c(OC)n2)CC1` [Compound 32], the IC50 stood at 980 nM.

In a further test the target is T1, PDE 7 (phosphodiesterase VII) (Homo sapiens, UniProt Q13946).
T1 construct: filtrated with 0.2 μm filter to obtain the soluble fraction; endogenous in cells; host or cells: MOLT-4 (ATCC CRL-1582); soluble fraction, HiTrap Q eluate at about 350 mM NaCl
T1 sequence (Q13946 whole entry): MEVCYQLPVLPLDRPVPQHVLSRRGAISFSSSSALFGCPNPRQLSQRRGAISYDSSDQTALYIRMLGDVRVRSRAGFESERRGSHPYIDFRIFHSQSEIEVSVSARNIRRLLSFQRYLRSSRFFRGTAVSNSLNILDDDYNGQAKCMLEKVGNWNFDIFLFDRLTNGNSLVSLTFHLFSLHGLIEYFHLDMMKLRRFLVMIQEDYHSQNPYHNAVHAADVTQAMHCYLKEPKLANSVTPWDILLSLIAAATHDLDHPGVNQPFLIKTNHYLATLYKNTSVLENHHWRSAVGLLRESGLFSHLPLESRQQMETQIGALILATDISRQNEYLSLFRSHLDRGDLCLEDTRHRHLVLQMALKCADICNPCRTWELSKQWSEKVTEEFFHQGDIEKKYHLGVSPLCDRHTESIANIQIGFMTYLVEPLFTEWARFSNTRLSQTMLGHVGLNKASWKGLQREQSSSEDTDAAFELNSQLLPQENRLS
The experiment in a line: PDE 7 inhibiting effect (Biological Test 1; 3H-cAMP hydrolysis by PDE 7 fraction from MOLT-4 cells). The class given is biochemical. Particulars: PDE 7 active fraction from MOLT-4 cells; 0.064 μM cAMP, 10 μM rolipram, 2 hours at 25° C. The procedure: The PDE 7 (phosphodiesterase VII) inhibiting effect of the compounds of the present invention was performed by the following method, which was modified assay method described in Biochemical. Pharmacol. 48(6), 1219-1223 (1994).
(1) The active fraction of PDE 7 (phosphodiesterase VII) was obtained. That is, MOLT-4 (obtainable from ATCC as ATCC No. CRL-1582), which was cell line of human acute lymphoblastic lymphoma T cells, was incubated in RPMI1640 culture medium containing 10% fetal bovine serum to obtain 5×10^8 MOLT-4 cells. The cells were collected by centrifugation and suspended with 10 mL of buffer solution A 125 mM of tris-HCl, 5 mM of 2-mercaptoethnol, 2 mM of benzamidine, 2 mM of EDTA, 0.1 μM of 4-(2-aminoethyl)benzensulfonyl hydrochloride; pH 7.5], then homogenized by Polytron® homogenizer. The homogenate were centrifuged under 25,000×G for 10 minutes at 4° C. The supernatant was separated and thus obtained supernatant was further centrifuged under 100,000×G for 60 minutes at 4° C., and then filtrated with 0.2 μm filter to obtain the soluble fraction.
(2) The obtained soluble fraction was filled in equilibrium HiTrap Q column (5 mL×2) with buffer solution A, and phosphodiesterase fractions were eluted by 300 mL of buffer solution A with linear gradient from 0 to 0.8 M NaCl concentration. 5 ml each of 60 eluents were collected, and each eluents were examined for cyclic AMP metabolic activities of phosphodiesterase. The fraction eluting with about 350 mM NaCl concentration parts, where metabolic activities were not inactivated by 10 μM of rolipram (selective inhibitor for phosphodiesterase IV) and 10 μM of milrinone (selective inhibitor for phosphodiesterase III), were collected as storage solution for using to test PDE 7 inhibiting effect.
(3) The tested compound having desired concentration was reacted in the solution of 20 mM tris-HCl (pH 7.5), 1 mM of MgCl2, 100 μM of EDTA, 330 μg/mL of bovine serum albumin, 4 μg/mL of 5′-nucleotidase, 0.1 μCi of ^3H-cAMP (0.064 μM of cAMP), 10 μM of rolipram in storage solution of PDE 7 for 2 hours at 25° C. After the reaction, suspension of Sephadex®-QAE in 10 mM of HEPES-Na (pH 7.0) was added to the reaction mixture, and the mixture was left at rest for 5 minutes. Further, Sephadex®-QAE was added to the obtained supernatant and the mixture was leaved at rest for 5 minutes, then, the radioactivity of the solution was measured.
(4) IC50 was calculated as 50% inhibiting concentration of the metabolic activities of phosphodiesterase VII of the tested compound.
Turning to `COc1nc(N2CCN(C)CC2)ccc1-c1nc2c(C)nn(C3CCCCC3)c2c(=O)[nH]1` [Compound 16, 1-Cyclohexyl-5-[2-methoxy-6-(4-methyl-1-piperazinyl)-3-pyridinyl]-3-methyl-1,6-dihydro-7H-pyrazolo[4,3-d]pyrimidin-7-one], the IC50 is at most 100 nM.
The same measure, in the same setting: in the case of `COc1nc(N2CCOCC2)ccc1-c1nc2c(C)nn(C3CCCCC3)c2c(=O)[nH]1` [Compound 17, 1-Cyclohexyl-5-[2-methoxy-6-(4-morpholinyl)-3-pyridinyl]-3-methyl-1,6-dihydro-7H-pyrazolo[4,3-d]pyrimidin-7-one] it was at most 100 nM; in that of `COc1nc(N2CCCN(C)CC2)ccc1-c1nc2c(C)nn(C3CCCCC3)c2c(=O)[nH]1` [Compound 18, 1-Cyclohexyl-5-[2-methoxy-6-(4-methyl-1,4-diazepan-1-yl)-3-pyridinyl]-3-meth-1-1,6-dihydro-7H-pyrazolo[4,3-d]pyrimidin-7-one], at most 100 nM; in that of `COc1nc(N2CCN(C)CC2)ccc1-c1nc2c(c(C3CCCCC3)nn2C)c(=O)[nH]1` [Compound 20, 3-Cyclohexyl-6-[2-methoxy-6-(4-methyl-1-piperazinyl)-3-pyridinyl]-1-methyl-1,5-dihydro-4H-pyrazolo[3,4-d]pyrimidin-4-one], at most 100 nM.
On the same count and under the same terms, then `COc1nc(N2CCOCC2)ccc1-c1nc2c(c(C3CCCCC3)nn2C)c(=O)[nH]1` [Compound 21, 3-Cyclohexyl-6-[2-methoxy-6-(4-morpholinyl)-3-pyridinyl]-1-methyl-1,5-dihydro-4H-pyrazolo[3,4-d]pyrimidin-4-one], with at most 100 nM; and `COc1nc(N2CCCN(C)CC2)ccc1-c1nc2c(c(C3CCCCC3)nn2C)c(=O)[nH]1` [Compound 22, 3-Cyclohexyl-6-[2-methoxy-6-(4-methyl-1,4-diazepan-1-yl)-3-pyridinyl]-1-methyl-1.5-dihydro-4H-pyrazolo[3,4-d]pyrimidin-4-one], with at most 100 nM; and `COc1nc(N2CCC(O)CC2)ccc1-c1nc2c(c(C3CCCCC3)nn2C)c(=O)[nH]1` [Compound 25, 3-Cyclohexyl-6-[6-(4-hydroxy-1-piperidinyl)-2-methoxy-3-pyridinyl]-1-methyl-1,5-dihydro-4H-pyrazolo[3,4-d]pyrimidin-4-one], with at most 100 nM.
The same measure, in the same setting: in the case of `CNC1CCN(c2ccc(-c3nc4c(c(C5CCCCC5)nn4C)c(=O)[nH]3)c(OC)n2)CC1` [Compound 26, 3-Cyclohexyl-6-{2-methoxy-6-[4-(methylamino)-1-piperidinyl]-3-pyridinyl}-1-methyl-1,5-dihydro-4H-pyrazolo[3,4-d]-pyrimidin-4-one] it was ≤ 100 nM and 2.6 nM; in that of `COc1nc(N2CCC(N(C)C)CC2)ccc1-c1nc2c(c(C3CCCCC3)nn2C)c(=O)[nH]1` [Compound 27, 3-Cyclohexyl-6-{6-[4-(dimethylamino)-1-piperidinyl]-2-methoxy-3-pyridinyl}-1-methyl-1.5-dihydro-4H-pyrazolo[3,4-d]-pyrimidin-4-one], at most 100 nM.
`COc1nc(N2CCC(N)CC2)ccc1-c1nc2c(c(C3CCCCC3)nn2C)c(=O)[nH]1` [Compound 28, 6-[6-(4-Amino-1-piperidinyl)-2-methoxy-3-pyridinyl]-3-cyclohexyl-1-methyl-1,5-dihydro-4H-pyrazolo[3,4-d]pyrimidin-4-one] had an IC50 of at most 100 nM.
For `COc1nc(N2CCC(NC(C)=O)CC2)ccc1-c1nc2c(c(C3CCCCC3)nn2C)c(=O)[nH]1` [Compound 29, N-{1-[5-(3-Cyclohexyl-1-methyl-4-oxo-4,5-dihydro-1H-pyrazolo[3,4-d]-pyrimidin-6-yl)-6-methoxy-2-piridinyl]-4-piperidinyl}acetamide], the IC50 was at most 100 nM.
The same measure, in the same setting: in the case of `CNC1CCN(c2ccc(-c3nc4c(C)nn(C5CCCCC5)c4c(=O)[nH]3)c(OC)n2)CC1` [Compound 32] it was ≤ 100 nM and 3.2 nM; in that of `COc1nc(N2CCC(N(C)C)CC2)ccc1-c1nc2c(C)nn(C3CCCCC3)c2c(=O)[nH]1` [Compound 33], at most 100 nM; in that of `COc1nc(S(=O)(=O)N2CCCN(C)CC2)ccc1-c1nc2c(c(C3CCCCC3)nn2C)c(=O)[nH]1` [Compound 36, 3-Cyclohexyl-6-{2-methoxy-6-[(4-methyl-1,4-diazepan-1-yl)sulfonyl]-3-pyridinyl}-1-methyl-1,5-dihydro-4H-pyrazolo[3,4-d]pyrimidin-4-one], at most 100 nM.
On the same count and under the same terms, then `COc1nc(N2CCC(O)CC2)ccc1-c1nc2c(C)nn(C3CCCCC3)c2c(=O)[nH]1` [Compound 37, 1-Cyclohexyl-5-[6-(4-hydroxy-1-piperidinyl)-2-methoxy-3-pyridinyl]-3-methyl-1,6-dihydro-7H-pyrazolo[4,3-d]pyrimidin-7-one], with at most 100 nM; and `CCOc1nc(N2CCN(C)CC2)ccc1-c1nc2c(C)nn(C3CCCCC3)c2c(=O)[nH]1` [Compound 43], with at most 100 nM; and `CCOc1nc(N2CCCN(C)CC2)ccc1-c1nc2c(C)nn(C3CCCCC3)c2c(=O)[nH]1` [Compound 44, 1-Cyclohexyl-5-[2-ethoxy-6-(4-methyl-1,4-diazepan-1-yl)-3-pyridinyl]-3-methyl-1,6-dihydro-7H-pyrazolo[4,3-d]pyrimidin-7-one], with at most 100 nM.
On the same count and under the same terms, then `CCOc1nc(N2CCC(N(C)C)CC2)ccc1-c1nc2c(C)nn(C3CCCCC3)c2c(=O)[nH]1` [Compound 47, 1-Cyclohexyl-5-{6-[4-(dimethylamino)-1-piperidinyl]-2-ethoxy-3-pyridinyl]-3-methyl-1,6-dihydro-7H-pyrazolo[4,3-d]-pyrimidin-7-one], with at most 100 nM.
With `CCOc1nc(N2CCC(NC)CC2)ccc1-c1nc2c(C)nn(C3CCCCC3)c2c(=O)[nH]1` [Compound 48, 1-Cyclohexyl-5-{2-ethoxy-6-[4-(methylamino)-1-piperidinyl]-3-pyridinyl}-3-methyl-1,6-dihydro-7H-pyrazolo[4,3-d]pyrimidin-7-one], the IC50 is at most 100 nM.
In turn, `CCOc1nc(N2CCC(O)CC2)ccc1-c1nc2c(C)nn(C3CCCCC3)c2c(=O)[nH]1` [Compound 49, 1-Cyclohexyl-5-[2-ethoxy-6-(4-hydroxy-1-piperidinyl)-3-pyridinyl]-3-methyl-1,6-dihydro-7H-pyrazolo[4,3-d]pyrimidin-7-one] came in with an IC50 of at most 100 nM.
